A short description of series [1]: ssNMR 15N T1rho relaxation (dynamics of bound teixobactin), Lys-Lipid II. The note with it: [L10] analogue, 60 kHz MAS. Here is the method: Relaxation studies: ^1H-detected ^15N T1rho relaxation experiments were carried out at 950 and 700 MHz magnetic field, respectively, using 60 kHz MAS[51]. The ^15N transverse magnetization decay was probed with a ^15N spinlock field of 17.5 kHz. For the bulk, we measured the intensity of the most intense signal at ~8.80 ^1H ppm. T1rho trajectories were fit to single exponentials.
Lipid I or II-doped multi-laminar vesicle preparations: DOPC or DOPG lipids were mixed with Lipid I or II in 1:1 MeOH:CHCl3 at the final Lipid I or II molar ratio (0–4 mol%/mol). The mixtures were dried and the lipid films were hydrated by vortexing with 2 mL of a teixobactin solution in 40 mM phosphate, 25 mM NaCl, pH 7.0.
(§1) SSNMR samples: MLVs were collected by centrifugation (20,000×g) and loaded into ssNMR rotors. For 3.2 mm rotors, we used 800 nmol of antibiotic with unlabelled Lipid II or I, while we used 400 nmol with labelled Lipid II. For 1.3 mm rotors, samples contained 200 nmol of antibiotic for unlabelled Lipid II or I, while we used 100 nmol for labelled Lipid II. For all ssNMR samples, we used 4 mol%/mol Lipid II or I in the MLVs.

Series [2] in a line: ssNMR signal intensity of Lipid II-bound teixobactin, DOPC vs DOPG liposomes.
Excerpt: as §1
H/ppm H/ppm N spinlock duration (ms)
Weaker binding affinity to Lipid II in anionic conditions is a common property of the binding mode of teixobactins.
To validate and generalise our findings, we repeated ssNMR studies with a second analogue, [L10]-teixobactin, which is close to natural teixobactin. Both [L10]- teixobactin and [R4L10]-teixobactin show similar behaviour in anionic membranes, i.e., sharp drops in ssNMR sensitivity and marked increase in mobility in the complex. We note that only the difference between natural teixobactin and [Leu10]- teixobactin is the substitution of enduracididine10 by leucine10. We also note that the substitution by enduracididine10 by cationic or hydrophobic residues is tolerated […]
a) 1H-detected 1D NH spectra of Lipid II-bound [Leu10]-teixobactin measured in DOPC (cyan) and DOPG (red) liposomes. The signal-to-noise ratio is more than six times lower in anionic membranes. Both spectra were acquired with fully packed 1.3 mm rotors and 10240 scans each. b)15N T1rho signal decay curves of the bulk signal of Lipid II-bound [Leu10]- teixobactin in DOPC (cyan) and (DOPG (red) membranes. Relaxation is much faster […]
c) Corresponding 15N R1rho rates of Lipid II-bound [Leu10]-teixobactin in DOPC (cyan) and DOPG (red) membranes. The error bars show the standard error of the fit. Source data are provided as a Source Data file.
The spectra were acquired at 700 MHz with 60 kHz magic angle spinning (MAS).

Series [3] is described as follows: Fluorescence microscopy of GUVs doped with NBD-labelled Lipid II (Lipid II clustering). The note with it: DOPC GUVs, 1 μM peptide, 4 h.
Description: GUVs were prepared using the electroformation method. The GUV cell is a self-assembled system which consists of a 5 mm-thick Teflon plate which is aligned with two titanium electrodes in a closed Teflon chamber. 1.5 μL of 0.5 mM DOPC doped with NBD-labelled Lipid II (0.1 mol%) were brushed on the electrodes. Next, the chamber was filled with 350 μL 0.1 M sucrose solution; the electrodes dipped in and then connected to a power supply which generated a sine wave of voltage 2.5 V at a frequency of 10 Hz for 90 min. Each microscopy slide (μ-slide 8 well, Ibidi) was covered with 350 μL BSA solution (1 mg/mL). To detach the GUVs from the electrodes the power supply was changed to square wave of voltage 2 V at a frequency of 2 Hz for 15 min. The slides were immersed in 300 μL 0.1 mM glucose solution to which 80 μL of GUVs were added. These were incubated for 4 h with 1 μM [R4L10]-teixobactin and observed by confocal microscopy. Anionic GUVs were prepared using a homemade electroformation setup with ITO coverslips (18 × 18 mm, 15–30 Ω, SPI supplies). On both slips, 3 μL of a chloroform–methanol (1:1, vol/vol) solution containing 1 mM of a 3:1 mixture of DOPC:DOPG (mol/mol) and 0.1 mol% NBD-labelled Lipid II was deposited and dried in a vacuum desiccator. With these slips, the electroformation chamber was assembled and filled with 0.1 M sucrose solution. The GUV cell was connected to the power supply and an alternating current applied (1 V, 10 Hz). GUV formation was carried out overnight.
Microscopy: GUVs were imaged using Zeiss LSM 880 with ×63/1.2NA glycerol objective lens. The NBD label appeared green upon excitation by the 488 nm laser. The emission range for detection was 530–545 nm (λem peak = 539 nm). The brightfield images were used for detection and location of the GUVs without a fluorescent signal and also as a control to observe their shape.
For series [4] the following is noted: vancomycin, unlike teixobactins; cited from earlier work. The text has this: In summary, a picture of a balanced binding mode emerges in which teixobactins use the conserved pyrophosphate as firm, specific anchor, whereas the interaction with the sugar-pentapeptide headgroup is more loosely defined[28],[29]. This behaviour enables teixobactins to recognize different cognate cell-wall building blocks and wall teichoic acids precursors, such as Lipid I, Lipid II, Lipid III, and undecaprenyl pyrophosphate that all have the PPi moiety in common but feature different headgroups. The capacity to recognize several conserved precursor molecules both maximizes the number of ...

Series [5] deals with the molecule itself. Description: solid-state NMR; 2D 13C13C PARISxy spectra with long magnetization transfer times (50-1000 ms), distance threshold ~8 Å; 13C,15N-labelled [R4L10]-teixobactin bound to unlabelled Lipid II (4 mol%) in DOPC membranes; 950 MHz, 15.5 kHz MAS, 270 K.

Bridge positions count the residues as written; N and C are the ends. Square brackets hold non-standard residues; d marks the D form. Ends that are not written are not given here. d(aIle) = CC[C@H](C)[C@@H](N)C(=O)O; dNMeF = CN[C@H](Cc1ccccc1)C(=O)O

As to Leu10-teixobactin [[L10]-teixobactin], in series [1] (Lys-LII in DOPC (Lys-LII PC)), the “Bulk 15N R1rho” value came out at 5.29 s⁻¹ and the “Bulk 15N T1rho” value is recorded as 189.00 ms. Further, in series [1] (Lys-LII in DOPG (Lys-LII PG)), the “Bulk 15N R1rho” value amounted to 18.49 s⁻¹ and the “Bulk 15N T1rho” value worked out at 54.07 ms. Further, the “signal-to-noise ratio, times lower in anionic membranes” value in series [2] (DOPG vs DOPC, 1H-detected 1D NH spectra, 10240 scans each) is “more than six”. Also, the “relative 1D NH signal, DOPC” value in series [2] (Supplementary Figure 11a, DOPC (reference)) was found to be 100%. For the same molecule, the “relative 1D NH signal, DOPG” value in series [2] (Supplementary Figure 11a, DOPG relative to DOPC) turned out to be 15%. In series [3] (0.1 mol% NBD-Lipid II), the “Lipid II segregation into clusters on GUVs” value was “segregation of Lipid II into clusters”. Also, in series [3] (brightfield images, cluster sites show slight membrane deformations), the “vesicle integrity and morphology after incubation” value is listed as “morphology is maintained”.
As to vancomycin, the “ability to bind Lipid II versions with different pentapeptides” value in series [4] is given as “unlike vancomycin”.

B1: [R4L10]-teixobactin (peptide)
peptide: [dNMeF]IS[dR][d(aIle)]IS[dT]ALI
modifications: ester 8-C; also: 13C,15N-labelled at Ile2, Ser3, Ile6, Ser7, Ala9, Leu10
notes: Analogue of teixobactin, a natural undecapeptide from Eleftheria terrae; Cyclic depsipeptide with non-proteinogenic and D-residues; also called D-Arg4-Leu10-teixobactin; source: synthetic peptide (solid-phase synthesis, cyclised, purified by RP-HPLC)
For B1, the binding result in series [5] is “binds”.

These data come from PMC7275090, “Mode of action of teixobactins in cellular membranes” (Nature Communications, 2020).
